We go through 11 compounds from ChEMBL document CHEMBL1201862, “PubChem BioAssay data set” (2004).

Some test systems named below: ACHN; BT-549; CAKI-1; HCT-15; KM12; LOX IMVI; MCF7; MOLT-4; OVCAR-3; OVCAR-4; OVCAR-8; SF-539; SK-OV-3; SN12C; SNB-19; UACC-257; UO-31; Malme-3M; NCI-H226; NCI-H522.
What all share (assay): NCI anticancer screen, dose series, 48 h

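96-well plates; 48 h exposure; 5 concentrations. Endpoints by linear interpolation between flanking doses. Not reached: highest tested concentration assigned. GI50 = concentration required for 50% inhibition of growth.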 Active and inactive are the calls of the source. No stated cut-off is given here; in the data, active = GI50 up to about 1.1 µM and inactive = higher.

With `CSc1ccc(/C=C2\N=C(c3ccccc3)N(c3nc4c(Cl)cc(Cl)cc4s3)C2=O)cc1`, the GI50 was 27 µM (inactive) in the assay with ACHN; 21.5 µM (inactive) in the assay with BT-549; 31 µM (inactive) in the assay with CAKI-1; 28.5 µM in the assay on HCT-15; 23 µM (inactive) with KM12; 29.9 µM (inactive) in the assay on LOX IMVI. The GI50 in the assay with MCF7 was 24.9 µM (inactive); in the assay on MOLT-4 it was 18.6 µM (inactive); with OVCAR-3, 18.9 µM (inactive); in the assay on OVCAR-4, 21.2 µM (inactive); in the assay with OVCAR-8, 38.5 µM (inactive); in the assay on SF-539, 34.5 µM (inactive). Further, the GI50 with SK-OV-3 was 25.9 µM (inactive); with SN12C it was 24.8 µM (inactive); in the assay with SNB-19, 28.9 µM (inactive); with UACC-257 it was 25.2 µM (inactive); with UO-31, 22.2 µM (inactive).
Turning to `c1ncc(C23C4C5C6C4C2C6C53)[nH]1` (configuration not stated), the GI50 with ACHN was > 100 µM (inactive); with BT-549, > 100 µM (inactive); with CAKI-1, > 100 µM (inactive); with HCT-15 it was above 100 µM; in the assay with KM12 it was > 100 µM (inactive); in the assay with LOX IMVI, > 100 µM (inactive). Further, the GI50 with MCF7, in the assay with MOLT-4, in the assay with Malme-3M, in the assay with NCI-H226, with OVCAR-3 and in the assay with OVCAR-4 was > 100 µM (inactive) throughout. Moreover, the GI50 in the assay with OVCAR-8, with SF-539, in the assay on SK-OV-3, in the assay with SN12C, with SNB-19 and with UACC-257 was > 100 µM (inactive) throughout. Further, in the assay on UO-31, the GI50 is > 100 µM (inactive).
`CCOC(=O)c1ccc(NCC#CCN2CCCCC2)cc1`: the GI50 is 57.5 µM (inactive) with ACHN; > 100 µM (inactive) in the assay with BT-549; 89.9 µM in the assay on HCT-15; > 100 µM (inactive) in the assay with KM12; > 100 µM (inactive) in the assay with LOX IMVI; 73.8 µM (inactive) in the assay on MCF7. Besides, the GI50 with MOLT-4, in the assay with Malme-3M, in the assay on NCI-H226, in the assay with OVCAR-3, in the assay with OVCAR-4 and in the assay with SF-539 was > 100 µM (inactive) each time. In addition, the GI50 in the assay on SK-OV-3, in the assay on SN12C, in the assay with SNB-19 and with UO-31 was > 100 µM (inactive) each time.
In the case of `CCC(CN(C)C)C(=O)c1ccco1` (configuration not stated), the GI50 was > 100 µM (inactive) in the assay on ACHN; > 100 µM (inactive) in the assay on BT-549; > 100 µM (inactive) in the assay on CAKI-1; above 100 µM in the assay on HCT-15; > 100 µM (inactive) in the assay with KM12; > 100 µM (inactive) in the assay on LOX IMVI. Further, the GI50 was 47.9 µM (inactive) in the assay on MCF7; 22.3 µM (inactive) in the assay on MOLT-4; 41.4 µM (inactive) with Malme-3M; 14.5 µM (inactive) in the assay on NCI-H522; > 100 µM (inactive) with OVCAR-3; > 100 µM (inactive) with OVCAR-4. In addition, the GI50 with OVCAR-8, in the assay with SK-OV-3, in the assay on SN12C, in the assay with SNB-19, in the assay on UACC-257 and in the assay with UO-31 was > 100 µM (inactive) each time.
Consider `Cc1cc2c(c(/C=N/c3ccccc3O)c1)OC1(C=C2)Oc2ccccc2C(=O)N1C` (configuration not stated), for which the GI50 with ACHN was 14.2 µM (inactive); in the assay on BT-549, 18.7 µM (inactive); with CAKI-1 it was 13.3 µM (inactive); with HCT-15, 15.9 µM; in the assay with KM12, 20.8 µM (inactive); with LOX IMVI, 12.8 µM (inactive). In addition, the GI50 is 13.5 µM (inactive) in the assay with MOLT-4; 15.4 µM (inactive) in the assay on NCI-H226; 12.8 µM (inactive) in the assay with OVCAR-3; 23.1 µM (inactive) with OVCAR-4; 17.7 µM (inactive) with OVCAR-8; 24.4 µM (inactive) in the assay with SK-OV-3. For the same compound, the GI50 with SN12C was 20.9 µM (inactive); with SNB-19 it was 24.7 µM (inactive); with UACC-257, 14.1 µM (inactive); in the assay with UO-31 it was 10.6 µM (inactive).
In the case of `Oc1ccc(-c2nc(-c3cccnc3)c(-c3ccc(F)cc3)[nH]2)cc1`, the GI50 is 20.5 µM (inactive) in the assay on ACHN; 16.6 µM (inactive) in the assay with BT-549; 28.6 µM (inactive) in the assay on CAKI-1; 22.7 µM with HCT-15; 18.2 µM (inactive) with KM12; 12.5 µM (inactive) in the assay on LOX IMVI. The GI50 in the assay with MCF7 was 16 µM (inactive); with MOLT-4, 10 µM (inactive); with Malme-3M it was 17.5 µM (inactive); in the assay on NCI-H226, 21.5 µM (inactive); in the assay on OVCAR-3, 16.7 µM (inactive); with OVCAR-4, 17.7 µM (inactive). Moreover, the GI50 was 17.9 µM (inactive) in the assay on OVCAR-8; 23.4 µM (inactive) in the assay with SK-OV-3; 23.9 µM (inactive) in the assay with SN12C; 25.2 µM (inactive) with SNB-19; 17.6 µM (inactive) in the assay with UACC-257; > 10 µM (inactive) in the assay on UO-31.
As to `O=c1c(C(c2ccc(/C=C/c3ccccc3)cc2)c2c(O)oc3ccccc3c2=O)c(O)oc2ccccc12`, the GI50 is 18.8 µM (inactive) in the assay with ACHN; 26.6 µM (inactive) with BT-549; 23 µM (inactive) in the assay on CAKI-1; 44 µM in the assay with HCT-15; 23 µM (inactive) in the assay on KM12; 25.8 µM (inactive) with LOX IMVI. The GI50 in the assay with MOLT-4 was 24.1 µM (inactive); in the assay on Malme-3M, 21.6 µM (inactive); with NCI-H226, 28.2 µM (inactive); in the assay with NCI-H522 it was 18.6 µM (inactive); in the assay with OVCAR-3, 36 µM (inactive); with OVCAR-4 it was 35.6 µM (inactive). Moreover, the GI50 with OVCAR-8 was 20.2 µM (inactive); in the assay on SN12C, 21.8 µM (inactive); in the assay with SNB-19 it was 46.9 µM (inactive); in the assay with UACC-257, 53.7 µM (inactive); in the assay on UO-31, 18.6 µM (inactive).
For the compound `CCC(C)[C@H](NC(=O)N[C@H](C)c1ccccc1)C(=O)OC` (some centres not stated), the GI50 is > 100 µM (inactive) in the assay with ACHN; > 100 µM (inactive) in the assay on BT-549; > 100 µM (inactive) with CAKI-1; above 100 µM with HCT-15; > 100 µM (inactive) in the assay on KM12; > 100 µM (inactive) in the assay with LOX IMVI. The GI50 with MCF7, with MOLT-4, in the assay with NCI-H226, with OVCAR-3, in the assay on OVCAR-4 and in the assay on OVCAR-8 was > 100 µM (inactive) in each case. For the same compound, the GI50 was 25.8 µM (inactive) with SF-539; > 100 µM (inactive) in the assay with SK-OV-3; > 100 µM (inactive) with SN12C; > 100 µM (inactive) with SNB-19; > 100 µM (inactive) in the assay on UACC-257; > 100 µM (inactive) with UO-31.
As for `CC(C(=O)n1ccnc1)N1c2ccccc2Sc2ccccc21` (configuration not stated), the GI50 is 83.2 µM (inactive) in the assay on ACHN; > 100 µM (inactive) in the assay with BT-549; 97.5 µM with HCT-15; 71.3 µM (inactive) with KM12; 82.8 µM (inactive) in the assay with LOX IMVI; 53.1 µM (inactive) in the assay with MCF7. In addition, the GI50 was 43 µM (inactive) in the assay with MOLT-4; 83.6 µM (inactive) in the assay on Malme-3M; 61.9 µM (inactive) in the assay on NCI-H226; 38.5 µM (inactive) in the assay on OVCAR-3; > 100 µM (inactive) with OVCAR-4; > 100 µM (inactive) in the assay with OVCAR-8. Further, the GI50 was > 100 µM (inactive) with SF-539; 97.7 µM (inactive) with SK-OV-3; 96.6 µM (inactive) with SN12C; > 100 µM (inactive) with SNB-19; 79.4 µM (inactive) in the assay with UACC-257; 70.1 µM (inactive) in the assay with UO-31.
Take `CS(=O)(=O)c1nc(-c2cc3c(c(S(C)(=O)=O)n2)CCC3)cc2c1CCC2`: the GI50 with ACHN is > 100 µM (inactive); in the assay on BT-549, > 100 µM (inactive); in the assay on CAKI-1, > 100 µM (inactive); with HCT-15, above 100 µM; with KM12, > 100 µM (inactive); in the assay on LOX IMVI, > 100 µM (inactive). For the same compound, the GI50 is > 100 µM (inactive) with MOLT-4; > 100 µM (inactive) in the assay on NCI-H226; > 100 µM (inactive) in the assay on NCI-H522; > 100 µM (inactive) in the assay with OVCAR-3; > 100 µM (inactive) with OVCAR-4; 74.5 µM (inactive) in the assay on OVCAR-8. Also, the GI50 with SF-539 was > 100 µM (inactive); with SK-OV-3 it was > 100 µM (inactive); in the assay with SN12C, > 100 µM (inactive); in the assay on SNB-19, 67.5 µM (inactive); in the assay on UACC-257, > 100 µM (inactive); in the assay on UO-31, > 100 µM (inactive).
`O=C1CCCC2=C1CC1=C(CCCC1=O)N2c1cccc([N+](=O)[O-])c1`: the GI50 in the assay with ACHN was > 100 µM (inactive); in the assay on BT-549, > 100 µM (inactive); in the assay on CAKI-1, > 100 µM (inactive); with HCT-15 it was above 100 µM; with KM12, > 100 µM (inactive); with LOX IMVI it was > 100 µM (inactive). The GI50 in the assay with MCF7 is 64 µM (inactive); in the assay with MOLT-4 it was > 100 µM (inactive); in the assay on NCI-H226, > 100 µM (inactive); in the assay with OVCAR-3, > 100 µM (inactive); in the assay with OVCAR-4 it was > 100 µM (inactive); in the assay with OVCAR-8, > 100 µM (inactive). For the same compound, the GI50 with SF-539, in the assay with SK-OV-3, in the assay on SN12C, with SNB-19 and in the assay with UO-31 was > 100 µM (inactive) each time.
